Laboratory results published in patent US8927500B2, “Peptidomimetic macrocycles” (Aileron Therapeutics, Inc., priority 2012, dated 2015).
Where two headings read alike, the source gives them in different places.

Tests used:
MDM2 = MDM2 (Homo sapiens, UniProt Q00987); assay: Competitive fluorescence polarization assay for MDM2; assay type: binding; conditions: competitive FP assay, MDM2
MDMX = target: T1, MDMX (Homo sapiens, UniProt O15151); assay: Competitive fluorescence polarization assay for MDMX; assay type: binding; conditions: competitive FP assay
T1 sequence (O15151 1-125): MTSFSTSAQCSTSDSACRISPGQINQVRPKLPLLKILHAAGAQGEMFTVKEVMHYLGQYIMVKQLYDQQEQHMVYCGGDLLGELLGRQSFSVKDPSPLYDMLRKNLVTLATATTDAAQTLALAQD

Sequence of MDM2 (Q00987 1-125): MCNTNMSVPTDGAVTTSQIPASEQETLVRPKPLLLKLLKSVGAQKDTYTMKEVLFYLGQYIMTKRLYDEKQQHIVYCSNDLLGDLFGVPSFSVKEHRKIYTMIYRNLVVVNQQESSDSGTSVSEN

Structure (SMILES)	IC50 (MDM2; read-out: IC50 (MDM2)) [nM]	Ki (MDM2; read-out: Ki (MDM2)) [nM]	IC50 (MDMX; read-out: IC50 (MDMX)) [nM]	Ki (MDMX; read-out: Ki (MDMX)) [nM]	IC50 (MDM2; IC50 (MDM2)) [nM]	Ki (MDM2; Ki (MDM2)) [nM]	IC50 (MDMX; IC50 (MDMX)) [nM]	Ki (MDMX; Ki (MDMX)) [nM]
CCCC[C@H](NC(=O)[C@H](C)NC(=O)[C@H](C)NC(=O)[C@]1(C)CCCC=CCCCCCC[C@@](C)(NC(=O)[C@H](Cc2ccccc2)NC(=O)[C@@H](NC(=O)[C@H](CC(C)C)NC(C)=O)[C@@H](C)O)C(=O)N[C@@H](C)C(=O)N[C@@H](Cc2ccc(O)cc2)C(=O)N[C@@H](Cc2c[nH]c3ccccc23)C(=O)N[C@@H](C)C(=O)N[C@@H](CCC(N)=O)C(=O)N[C@@H](CC(C)C)C(=O)N1)C(=O)N[C@@H](C)C(=O)N[C@H](C)C(N)=O (single isomer, unassigned) [compound 408]	10 to 100	< 10	10 to 100	10 to 100	–	–	–	–
CCCC[C@H](NC(=O)[C@H](C)NC(=O)[C@H](C)NC(=O)[C@]1(C)CCCC=CCCCCCC[C@@](C)(NC(=O)[C@H](Cc2ccccc2)NC(=O)[C@@H](NC(=O)[C@H](CC(C)C)NC(C)=O)[C@@H](C)O)C(=O)N[C@@H](C)C(=O)N[C@@H](Cc2ccc(O)cc2)C(=O)N[C@@H](Cc2c[nH]c3ccccc23)C(=O)N[C@@H](C)C(=O)N[C@@H](CCC(N)=O)C(=O)N[C@@H](CC(C)C)C(=O)N1)C(=O)N[C@@H](C)C(=O)N(C)CC(N)=O (single isomer, unassigned) [compound 410]	< 10	< 10	< 10	< 10	–	–	–	–
CCCC[C@H](NC(=O)[C@H](C)NC(=O)[C@H](C)NC(=O)[C@]1(C)CCCC=CCCCCCC[C@@](C)(NC(=O)[C@H](Cc2ccccc2)NC(=O)[C@@H](NC(=O)[C@H](CC(C)C)NC(C)=O)[C@@H](C)O)C(=O)N[C@@H](C)C(=O)N[C@@H](Cc2ccc(O)cc2)C(=O)N[C@@H](Cc2c[nH]c3ccccc23)C(=O)N[C@@H](C)C(=O)N[C@@H](CCC(N)=O)C(=O)N[C@@H](CC(C)C)C(=O)N1)C(=O)N[C@@H](C)C(=O)O (single isomer, unassigned) [compound 421]	< 10	< 10	< 10	< 10	–	–	–	–
CCCC[C@H](NC(=O)[C@H](C)NC(=O)[C@H](C)NC(=O)[C@]1(C)CCCC=CCCCCCC[C@@](C)(NC(=O)[C@H](Cc2ccccc2)NC(=O)[C@@H](NC(=O)[C@H](CC(C)C)NC(C)=O)[C@@H](C)O)C(=O)N[C@@H](C)C(=O)N[C@@H](Cc2ccc(O)cc2)C(=O)N[C@@H](Cc2c[nH]c3ccccc23)C(=O)N[C@@H](C)C(=O)N[C@@H](CCC(N)=O)C(=O)N[C@@H](CC(C)C)C(=O)N1)C(=O)N[C@@H](C)C(=O)NCCC (single isomer, unassigned) [compound 423]	10 to 100	< 10	10 to 100	10 to 100	–	–	–	–
CCCC[C@H](NC(=O)[C@H](C)NC(=O)[C@H](C)NC(=O)[C@]1(C)CCCC=CCCCCCC[C@@](C)(NC(=O)[C@H](Cc2ccccc2)NC(=O)[C@@H](NC(=O)[C@H](CC(C)C)NC(C)=O)[C@@H](C)O)C(=O)N[C@@H](C)C(=O)N[C@@H](Cc2ccc(O)cc2)C(=O)N[C@@H](Cc2c[nH]c3ccccc23)C(=O)N[C@@H](C)C(=O)N[C@@H](CCC(N)=O)C(=O)N[C@@H](CC(C)C)C(=O)N1)C(=O)N[C@@H](C)C(=O)NCCC(C)(C)C (single isomer, unassigned) [compound 425]	10 to 100	10 to 100	10 to 100	10 to 100	–	–	–	–
CCCCCCNC(=O)[C@H](C)NC(=O)[C@H](CCCC)NC(=O)[C@H](C)NC(=O)[C@H](C)NC(=O)[C@]1(C)CCCC=CCCCCCC[C@@](C)(NC(=O)[C@H](Cc2ccccc2)NC(=O)[C@@H](NC(=O)[C@H](CC(C)C)NC(C)=O)[C@@H](C)O)C(=O)N[C@@H](C)C(=O)N[C@@H](Cc2ccc(O)cc2)C(=O)N[C@@H](Cc2c[nH]c3ccccc23)C(=O)N[C@@H](C)C(=O)N[C@@H](CCC(N)=O)C(=O)N[C@@H](CC(C)C)C(=O)N1 (single isomer, unassigned) [compound 427]	100 to 1000	10 to 100	100 to 1000	10 to 100	–	–	–	–
CC(C)C[C@H](NC(=O)CN(C)C)C(=O)N[C@H](C(=O)N[C@@H](Cc1ccccc1)C(=O)N[C@]1(C)CCCCCCC=CCCC[C@@](C)(C(=O)N[C@@H](C)C(=O)N[C@@H](C)C(=O)N[C@@H](C)C(=O)N[C@@H](C)C(=O)N[C@@H](C)C(=O)N[C@H](C)C(N)=O)NC(=O)[C@H](CC(C)C)NC(=O)[C@H](CCC(N)=O)NC(=O)[C@H](C)NC(=O)[C@H](Cc2c[nH]c3ccccc23)NC(=O)[C@H](Cc2ccc(O)cc2)NC(=O)[C@H](CCC(=O)O)NC1=O)[C@@H](C)O (single isomer, unassigned) [compound 439]	–	–	–	–	< 10	< 10	10 to 100	< 10
CC[C@H](C)[C@H](NC(=O)[C@H](C)NC(=O)[C@H](C)NC(=O)[C@]1(C)CCCC=CCCCCCC[C@@](C)(NC(=O)[C@H](Cc2ccccc2)NC(=O)[C@@H](NC(=O)[C@H](CC(C)C)NC(=O)CN(C)C)[C@@H](C)O)C(=O)N[C@@H](CCC(=O)O)C(=O)N[C@@H](Cc2ccc(C(=O)O)cc2)C(=O)N[C@@H](Cc2c[nH]c3ccccc23)C(=O)N[C@@H](C)C(=O)N[C@@H](CCC(N)=O)C(=O)N[C@@H](CC2CCC2)C(=O)N1)C(=O)N[C@H](C)C(N)=O (single isomer, unassigned) [compound 441]	< 10	< 10	< 10	< 10	–	–	–	–
CCCC[C@H](NC(=O)[C@H](C)NC(=O)[C@H](C)NC(=O)[C@]1(C)CCCC=CCCCCCC[C@@](C)(NC(=O)[C@H](Cc2ccccc2)NC(=O)[C@@H](NC(=O)[C@H](CC(C)C)NC(=O)CN(C)C)[C@@H](C)O)C(=O)N[C@@H](C)C(=O)N[C@@H](Cc2ccc(O)cc2)C(=O)N[C@@H](Cc2c[nH]c3ccccc23)C(=O)N[C@@H](C)C(=O)N[C@@H](CCC(N)=O)C(=O)N[C@@H](CC(C)C)C(=O)N1)C(=O)N[C@@H](C)C(N)=O (single isomer, unassigned) [compound 443]	10 to 100	< 10	10 to 100	10 to 100	–	–	–	–
CC(=O)N[C@@H](CC(C)C)C(=O)N[C@H](C(=O)N[C@@H](Cc1ccccc1)C(=O)N[C@]1(C)CCCCCCC=CCCC[C@@](C)(C(=O)N[C@@H](C)C(=O)N[C@@H](C)C(=O)N[C@@H](C)C(=O)N[C@@H](C)C(=O)N[C@@H](C)C(=O)N[C@H](C)C(=O)O)NC(=O)[C@H](CC(C)C)NC(=O)[C@H](CCC(N)=O)NC(=O)[C@H](C)NC(=O)[C@H](Cc2c[nH]c3ccccc23)NC(=O)[C@H](Cc2ccc(O)cc2)NC(=O)[C@H](CCC(=O)O)NC1=O)[C@@H](C)O (single isomer, unassigned) [compound 551]	–	–	–	–	–	< 10	–	10 to 100
CC(=O)N[C@@H](CC(C)C)C(=O)N[C@H](C(=O)N[C@@H](Cc1ccccc1)C(=O)N[C@]1(C)CCCCCCC=CCCC[C@@](C)(C(=O)N[C@@H](C)C(=O)N[C@@H](C)C(=O)N[C@@H](C)C(=O)N[C@@H](C)C(=O)N[C@@H](C)C(=O)N[C@H](C)C(N)=O)NC(=O)[C@H](CC(C)C)NC(=O)[C@H](C)NC(=O)[C@H](C)NC(=O)[C@H](Cc2c[nH]c3ccccc23)NC(=O)[C@H](Cc2ccc(O)cc2)NC(=O)[C@H](C)NC1=O)[C@@H](C)O (single isomer, unassigned) [compound 708]	–	10 to 100	–	10 to 100	–	–	–	–
CC(=O)N[C@@H](CC(C)C)C(=O)N[C@H](C(=O)N[C@@H](Cc1ccccc1)C(=O)N[C@]1(C)CCCCCCC=CCCC[C@@](C)(C(=O)N[C@@H](CO)C(N)=O)NC(=O)[C@H](CC(C)C)NC(=O)[C@H](CCC(N)=O)NC(=O)[C@H](C)NC(=O)[C@H](Cc2c[nH]c3ccccc23)NC(=O)[C@H](C)NC(=O)[C@H](Cc2c[nH]cn2)NC1=O)[C@@H](C)O (single isomer, unassigned) [compound 710]	–	10 to 100	–	10 to 100	–	–	–	–
CC(=O)N[C@@H](CC(C)C)C(=O)N[C@H](C(=O)N[C@@H](Cc1ccccc1)C(=O)N[C@]1(C)CCCCCCC=CCCC[C@@](C)(C(=O)N[C@@H](CO)C(=O)N[C@@H](C)C(N)=O)NC(=O)[C@H](CC2CCC2)NC(=O)[C@H](CCC(N)=O)NC(=O)[C@H](C)NC(=O)[C@H](Cc2c[nH]c3ccccc23)NC(=O)[C@H](Cc2ccc(O)cc2)NC(=O)[C@H](CCC(=O)O)NC1=O)[C@@H](C)O (single isomer, unassigned) [compound 711]	–	10 to 100	–	100 to 1000	–	–	–	–
CC(=O)N[C@@H](CC(C)C)C(=O)N[C@H](C(=O)N[C@@H](Cc1ccccc1)C(=O)N[C@]1(C)CCCCCCC=CCCC[C@@](C)(C(=O)N[C@@H](CO)C(=O)N[C@@H](C)C(=O)N[C@@H](C)C(N)=O)NC(=O)[C@H](CC2CCC2)NC(=O)[C@H](CCC(N)=O)NC(=O)[C@H](C)NC(=O)[C@H](Cc2c[nH]c3ccccc23)NC(=O)[C@H](Cc2ccc(O)cc2)NC(=O)[C@H](Cc2c[nH]cn2)NC1=O)[C@@H](C)O (single isomer, unassigned) [compound 712]	–	< 10	–	< 10	–	–	–	–
CC(=O)N[C@@H](CC(C)C)C(=O)N[C@H](C(=O)N[C@@H](Cc1ccccc1)C(=O)N[C@]1(C)CCCCCCC=CCCC[C@@](C)(C(=O)N[C@@H](CO)C(=O)N[C@@H](C)C(=O)N[C@@H](C)C(N)=O)NC(=O)[C@H](CC2CCC2)NC(=O)[C@H](CCC(N)=O)NC(=O)[C@H](C)NC(=O)[C@H](Cc2c[nH]c3ccccc23)NC(=O)[C@H](Cc2ccc(O)cc2)NC(=O)[C@H](CO)NC1=O)[C@@H](C)O (single isomer, unassigned) [compound 713]	–	< 10	–	< 10	–	–	–	–
CC(=O)N[C@@H](CC(C)C)C(=O)N[C@H](C(=O)N[C@@H](Cc1ccccc1)C(=O)N[C@]1(C)CCCCCCC=CCCC[C@@](C)(C(=O)N[C@@H](C)C(=O)N[C@@H](C)C(=O)N[C@@H](C)C(N)=O)NC(=O)[C@H](CC2CCC2)NC(=O)[C@H](CCC(N)=O)NC(=O)[C@H](C)NC(=O)[C@H](Cc2c[nH]c3ccccc23)NC(=O)[C@H](Cc2ccc(O)cc2)NC(=O)[C@H](CCC(=O)O)NC1=O)[C@@H](C)O (single isomer, unassigned) [compound 716]	–	< 10	–	< 10	–	–	–	–
